# Source: article PMC10525585, “Evaluation of the Antibacterial Effect of Aurone-Derived Triazoles on Staphylococcus aureus” (Antibiotics, 2023)
# Key:
# MRSA [1] = assay: Growth curve assay (Bioscreen C, 48 h); assay type: cell-based, Staphylococcus aureus; details: 48 h growth curve; for strength of growth inhibition: concentrations closer to the IC50 values (5–25 µM)
# Method: (§1) This suspension was diluted 1:20 in TSB.
# (§2) For the growth curve assay, honeycomb plates (Growth Curves USA, Piscataway, NJ, USA) were used with TSB as the growth medium. Using bacterial cultures as described above, growth curve measurements were carried out in quintuplicates. For positive growth controls, wells with 10 µL of bacteria mixed into 90 µL of TSB were used. For quintuplicate treatment wells, 4-fold dilutions of AT compounds were used such that AT concentrations of 100, 25, 6.25, and 1.56 µM were tested. A 10 µL inoculum of bacteria prepared as described above was added to each dilution of the ATs. The growth in each well was measured in 15 min intervals for 48 h at 37 °C in the Bioscreen C instrument. The results were processed and analyzed with Microsoft Excel (version 2201) and GraphPad Prism 9.3.1 software (GraphPad by Dotmatics, Boston, MA, USA).
# MSSA [2] = assay: Growth curve assay (Bioscreen C, 48 h); assay type: cell-based, Staphylococcus aureus; details: 48 h growth curve; for strength of growth inhibition: concentrations closer to the IC50 values (5–25 µM)
# Method: as §1, §2
# pre-formed MSSA biofilms = assay: Biofilm assay (BacLight live/dead confocal imaging); assay type: cell-based, Staphylococcus aureus; details: for Fold Change in Dead Cells / Fold Change in Total Cells / Percent Change in Dead Cells / Percent Change in Total Cells: versus mock-treated control; for Dead Cell Count / Living Cell Count / Total Cell Count: 48 h biofilm treated 24 h with 100 µM AT; for Dead Cell Count: control 96; for Living Cell Count: control 2124; for Total Cell Count: control 2220
# Method: To prepare AT-treated cultures, overnight bacterial cultures were used (adjusted to 1 × 10^8 CFU/mL) in BHI medium to grow biofilm in 35 mm MatTEK dishes with a 20 mm glass bottom well by adding 1500 µL of overnight bacteria per dish. The dishes were incubated at 37 °C in a humidified incubator for 48 h. The old media was refreshed by adding 1500 µL of BHI for the control, or the AT mixture (15 µL of AT stock with 1485 µL BHI to achieve 100 µM AT concentration), or DMSO mixture (15 µL DMSO with 1485 µL BHI) for negative control. The dishes were then incubated in a humidified incubator for an additional 24 h at 37 °C. The media was removed, and cells were washed twice with 500 µL PBS, followed by the addition of 50 µL BacLight^TM with 250 µL PBS for 15 min. Biofilms were imaged using a Zeiss AxioObserver microscope with an LSM700 confocal module (Carl Zeiss Microscopy, White Plains, NY, USA). To assess biofilm disruption, Fiji software version 2.14.0 was used. Initially, raw microscope images were imported, separating the color channels, as dead cells were stained fluorescent red and living cells were stained green. To allow particle counts, the color saturation threshold was set using the RenyiEntropy option to clear the images from potential noise. This step was followed by watershed separation, which separates potentially overlapping cells, and then particle analysis was completed using the 0.5–1.5 micron size as a guide. Biofilm disruption was quantified both by reductions in total bacterial cell numbers and increases in dead cell numbers.
# MRSA [3] = assay: Checkerboard assay with antibiotics; assay type: cell-based, Staphylococcus aureus; details: smallest ratio; <0.5 synergy, 0.5–4 no interaction, >4 antagonism
# Method: (§3) This preparation for the checkerboard assay was analogous to the antibacterial assay described above in that the standard (5 × 10^5 CFU/mL) concentration of bacteria in media was mixed with 2-fold dilutions of antibacterial agents to verify their inhibition potential. […] Control wells contained 10 µL of bacteria with 90 µL of CAMHB, and the negative control was bacteria in 1% DMSO and CAMHB. Incubation, staining with PrestoBlue^TM, and assessing cell viability are as described for the antibacterial assay above.
# MSSA [4] = assay: Checkerboard assay with antibiotics; assay type: cell-based, Staphylococcus aureus; details: smallest ratio; <0.5 synergy, 0.5–4 no interaction, >4 antagonism
# Method: as §3
# [5] = test system: HepG2 (ATCC HB-8065) cells; assay: Cytotoxicity assay (PrestoBlue); assay type: cell-based, Human; details: Table 1 and text; 24 h incubation; read-out: CC50 (µM) HepG2
# Method: Human HeLa epithelial (ATCC CCL-2) and HepG2 liver epithelial (ATCC HB-8065) cell lines were used to determine toxicity of AT compounds for mammalian cells. The cells were grown in a complete culture medium of RPMI 1640 with 10% heat-inactivated fetal bovine serum (FBS) at 37 °C in 5% CO2 (95% room air) in a humidified incubator. Before use, attached cell monolayers, which had reached at least 90% confluency, were detached by trypsinization with trypsin-EDTA (0.25%) and resuspension in fresh complete culture media. For experiments, the stock concentration of 1 × 10^5 cells/mL (to achieve a final 1 × 10^4 cells/well concentration) was achieved by counting the trypsinized cells and adjusting to their final concentration for assays.
# HeLa or HepG2 cells were pre-seeded into a 96-well transparent, flat bottom plate by adding a volume of 100 µL stock cell concentration (1 × 10^5 cells/mL) in complete culture media to each well. The plate was incubated overnight at 37 °C in a 5% CO2 (95% room air) humidified incubator. After the incubation and before mixing in the AT compounds, a 100 µL volume of fresh complete culture media was added to the pre-seeded wells. The 2-fold dilutions of AT compounds in triplicates were prepared on a separate 96-well plate. Once the dilution plate was prepared, dilutions were transferred into the pre-seeded plate to achieve the same concentrations of ATs as for the inhibition assay described above. The final inoculated plate was then returned to the 5% CO2 (95% room air) humidified incubator for an additional 24 h of incubation with the diluted ATs. Controls were blank wells containing only media, wells with cells and DMSO in complete culture media, and wells with cells and complete culture media only. Measurement of toxicity was analogous to the inhibition assay except that 20 µL of PrestoBlue^TM was used and the incubation was 3–6 h before reading with the plate-reader. Cytotoxicity concentration (CC50) was defined as the concentration where half of the cells remained viable and was computed using GraphPad Prism.
Structure (SMILES),"relative inhibition of MRSA growth (MRSA [1]; 0–100 µM, among the four ATs)",blocking of bacterial growth (MRSA [1]; concentrations below 10 µM),strength of growth inhibition (MRSA [1]),blocking of bacterial growth (MSSA [2]; concentrations below 10 µM),strength of growth inhibition (MSSA [2]),"Fold Change in Dead Cells (pre-formed MSSA biofilms; 100 µM AT, 24 h)","Fold Change in Total Cells (pre-formed MSSA biofilms; 100 µM AT, 24 h)","Percent Change in Dead Cells (pre-formed MSSA biofilms; 100 µM AT, 24 h) [%]","Percent Change in Total Cells (pre-formed MSSA biofilms; 100 µM AT, 24 h) [%]",Dead Cell Count (pre-formed MSSA biofilms),Living Cell Count (pre-formed MSSA biofilms),Total Cell Count (pre-formed MSSA biofilms),"FICi with Daptomycin, MRSA (MRSA [3])","FICi with Vancomycin, MRSA (MRSA [3])","FICi with Daptomycin, MSSA (MSSA [4])","FICi with Vancomycin, MSSA (MSSA [4])","disruption of MSSA biofilms (pre-formed MSSA biofilms; pre-formed biofilm, 100 µM AT, 24 h)",CC50 [5] [µM]
O=C(c1ccccc1O)c1n[nH]nc1-c1ccc(Br)s1 [AT137],greatest inhibition,successful in blocking bacterial growth,strong inhibitors,successful in blocking bacterial growth,strong inhibitors,-0.8021,-0.9347,-80.21,-93.47,19,126,145,0.19,1.13,0.38,1.5,–,–
O=C(c1ccccc1O)c1n[nH]nc1-c1cccc(C(F)(F)F)c1 [AT116],–,–,weaker inhibitors,–,weaker inhibitors,2.417,-0.4212,241.67,-42.12,328,957,1285,0.05,1.03,0.28,–,successfully disrupted MSSA biofilms,–
O=C(c1ccccc1O)c1n[nH]nc1-c1ccc(Cl)cc1 [AT106],–,–,weaker inhibitors,–,weaker inhibitors,-0.75,-0.8914,-75.00,-89.14,24,217,241,0.05,0.52,0.25,0.57,–,70.7
